Results taken from patent publication US20160084820A1, “METHODS OF TREATING OR PREVENTING PERIODONTITIS AND DISEASES ASSOCIATED WITH PERIODONTITIS” (priority 2010, published 2016).

Tests used:
[1] = test system: lipid rafts (GM1 ganglioside); assay: FRET of TLR2, C5aR, CXCR4 with GM1 lipid raft marker; type: cell-based, mouse; settings: MCD 10 mM for 30 min
Experimental: Upon stimulation for 10 min at 37° C. with P. gingivalis, mouse macrophages were labeled with a mixture of Cy3-conjugated (donor) and Cy5-conjugated (acceptor) antibodies, as indicated in FIG. 4I. In additional experiments shown in FIG. 4I, FITC-labeled P. gingivalis was used as donor and TRITC-labeled receptors served as acceptors. The cells were washed and fixed, and energy transfer between various donor-acceptor pairs was calculated from the increase in donor fluorescence after acceptor photobleaching (REF 9, 14). […] The conjugation of antibodies to Cy3 or Cy5 was performed using kits from Amersham Biosciences.
Supplemental experiments also examined the association of TLR2, C5aR, and CXCR4 with GM1 (lipid raft marker) in P. gingivalis-stimulated macrophages (FIG. 10). Mouse macrophages were pretreated (or not) with methyl-β-cyclodextrin (MCD; 10 mM for 30 min) and then stimulated for 10 min with P. gingivalis (Pg; MOI=10:1) or medium only (med). Fluorescence resonance energy transfer (FRET) between TLR2, C5aR, CXCR4, TLR5, or MHC Class I (Cy3-labeled) and the GM1 ganglioside (Cy5-labeled) was measured from the increase in donor (Cy3) fluorescence after acceptor (Cy5) photobleaching. TLR5 and MHC Class I served as negative controls. […] As expected, max FRET values (38±1.2) were not affected by the cell activation status (med vs. Pg) or the use or not of MCD.

[2] = test system: phagocytosed P. gingivalis in mouse peritoneal macrophages; type: cell-based, P. gingivalis ATCC 33277; settings: Pg MOI=10:1; C5a 50 nM or C3a 200 nM; 24 or 48 hours post-infection
Experimental: The viability of phagocytosed P. gingivalis was monitored by an antibiotic protection-based intracellular survival assay, as previously described (Wang et al., 2007, J. Immunol., 179:2349-58). Briefly, mouse peritoneal macrophages were allowed to phagocytose P. gingivalis (MOI=10:1; 5×10^6 bacteria and 5×10^5 cells) for […] at 37° C. This was followed by washing to remove extracellular nonadherent bacteria and 1-hour treatment with antibiotics (300 μg/ml gentamicin and 200 μg/ml metronidazole) to eliminate residual or extracellular adherent bacteria. The macrophages were subsequently cultured overnight (for a total of 24 hours) or for 48 hours Immediately after, the macrophages were washed and lysed in sterile distilled water, and viable counts of internalized P. gingivalis were determined by plating serial dilutions of macrophage lysates on blood agar plates subjected to anaerobic culture.
The viability of phagocytosed P. gingivalis was monitored by an antibiotic protection-based intracellular survival assay, as previously described (Wang et al., 2007, J. Immunol., 179:2349-58)). Briefly, mouse peritoneal macrophages were allowed to phagocytose P. gingivalis (at a MOI=10:1; 5×10^6 bacteria and 5×10^5 macrophages) for 30 min at 37° C. This was followed by washing to remove extracellular nonadherent bacteria and 1-hour treatment with antibiotics (300 μg/ml gentamicin and 200 μg/ml metronidazole) to eliminate residual or extracellular adherent bacteria. The macrophages were subsequently cultured overnight for a total of 24 hours Immediately after, the macrophages were washed and lysed in sterile distilled water and viable counts of internalized P. gingivalis were determined by plating serial dilutions of macrophage lysates on blood agar plates subjected to anaerobic culture.

[3] = test system: mouse peritoneal macrophages; assay: P. gingivalis phagocytosis and receptor expression by flow cytometry; type: cell-based; settings: C5a 50 nM or C3a 200 nM, 30-min incubation
Experimental: First, experiments were performed to determine the effect of C5a (50 nM) or C3a (200 nM) on P. gingivalis phagocytosis by unprimed or IFN-γ-primed mouse peritoneal macrophages (FIG. 6A). The phagocytic index was calculated following a 30-min incubation using the following formula: % positive cells for fluorescently labeled P. gingivalis×MFI/100 (extracellular fluorescence was quenched prior to flow cytometry). Mouse macrophages were incubated at 37° C. for 30 min (B) or 24 hours (C) with medium, C5a (50 nM) only, or P. gingivalis (MOI=10:1) with or without C5a (50 nM). The expression levels of the indicated receptors, which coordinately mediate P. gingivalis uptake, were determined by flow cytometry after cell staining with appropriate fluorescently labeled antibodies (FIGS. 6B and 6C). The 30-min time point was examined to determine possible induced surface expression of preformed receptors from intracellular pools. […] Mouse-specific mAbs to TLR2 (clone 6C2), TLR1 (TR23), CD14 (Sa2-8), CD11b (M1/70), and CD18 (M18/2) were obtained from e-Bioscience.

methyl-β-cyclodextrin [MCD]
FRET increase between receptors and GM1 in P. gingivalis-stimulated macrophages [1]: reversal of FRET increase

C3a: related anaphylatoxin C3a from R&D Systems
intracellular survival of P. gingivalis in macrophages (viable counts of internalized bacteria) [2]: not by the related anaphylatoxin C3a | P. gingivalis phagocytosis [3]: not significantly affected
